Test system: NOMO1
Experiment: cell viability relative to DMSO control; higher = less cytotoxic
Details: 48 h
Method in brief: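 NOMO1 or SEM (500 cells/well) or P12-Ichikawa (1000 cells/well) leukemia cells were adapted for at least four passages in each medium. They were seeded in 1536-well plates (5 μl) and pin-dosed with library compounds in DMSO over an 11-point threefold series, 47 μM to 0.79 nM. CellTiter-Glo One luminescence was read after 48 h at 37°C. Viability is the per-plate percentage relative to DMSO wells, with cell-free wells as background.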

[1] = HPLM + 10% dialyzed FBS, 0.000781 µM
[2] = HPLM + 10% dialyzed FBS, 0.00234 µM
[3] = HPLM + 10% dialyzed FBS, 0.00702 µM
[4] = HPLM + 10% dialyzed FBS, 0.0211 µM
[5] = HPLM + 10% dialyzed FBS, 0.0632 µM
[6] = HPLM + 10% dialyzed FBS, 0.19 µM
[7] = HPLM + 10% dialyzed FBS, 0.569 µM
[8] = HPLM + 10% dialyzed FBS, 1.71 µM
[9] = HPLM + 10% dialyzed FBS, 5.12 µM
[10] = HPLM + 10% dialyzed FBS, 15.4 µM
[11] = HPLM + 10% dialyzed FBS, 46.1 µM
[12] = RPMI 5 mM glucose + 10% FBS, 0.000781 µM
[13] = RPMI 5 mM glucose + 10% FBS, 0.00234 µM
[14] = RPMI 5 mM glucose + 10% FBS, 0.00702 µM
[15] = RPMI 5 mM glucose + 10% FBS, 0.0211 µM
[16] = RPMI 5 mM glucose + 10% FBS, 0.0632 µM
[17] = RPMI 5 mM glucose + 10% FBS, 0.19 µM
[18] = RPMI 5 mM glucose + 10% FBS, 0.569 µM
[19] = RPMI 5 mM glucose + 10% FBS, 1.71 µM
[20] = RPMI 5 mM glucose + 10% FBS, 5.12 µM
[21] = RPMI 5 mM glucose + 10% FBS, 15.4 µM
[22] = RPMI 5 mM glucose + 10% FBS, 46.1 µM
[23] = RPMI 5 mM glucose + 10% dialyzed FBS, 0.000781 µM
[24] = RPMI 5 mM glucose + 10% dialyzed FBS, 0.00234 µM
[25] = RPMI 5 mM glucose + 10% dialyzed FBS, 0.00702 µM
[26] = RPMI 5 mM glucose + 10% dialyzed FBS, 0.0211 µM
[27] = RPMI 5 mM glucose + 10% dialyzed FBS, 0.0632 µM
[28] = RPMI 5 mM glucose + 10% dialyzed FBS, 0.19 µM
[29] = RPMI 5 mM glucose + 10% dialyzed FBS, 0.569 µM
[30] = RPMI 5 mM glucose + 10% dialyzed FBS, 1.71 µM
[31] = RPMI 5 mM glucose + 10% dialyzed FBS, 5.12 µM
[32] = RPMI 5 mM glucose + 10% dialyzed FBS, 15.4 µM
[33] = RPMI 5 mM glucose + 10% dialyzed FBS, 46.1 µM

SMILES | cell viability [1] [%] | cell viability [2] [%] | cell viability [3] [%] | cell viability [4] [%] | cell viability [5] [%] | cell viability [6] [%] | cell viability [7] [%] | cell viability [8] [%] | cell viability [9] [%] | cell viability [10] [%] | cell viability [11] [%] | cell viability [12] [%] | cell viability [13] [%] | cell viability [14] [%] | cell viability [15] [%] | cell viability [16] [%] | cell viability [17] [%] | cell viability [18] [%] | cell viability [19] [%] | cell viability [20] [%] | cell viability [21] [%] | cell viability [22] [%] | cell viability [23] [%] | cell viability [24] [%] | cell viability [25] [%] | cell viability [26] [%] | cell viability [27] [%] | cell viability [28] [%] | cell viability [29] [%] | cell viability [30] [%] | cell viability [31] [%] | cell viability [32] [%] | cell viability [33] [%]
CC(=O)Nc1ccc([C@H](C)C(=O)Nc2ncc(C(C)C)s2)cc1 | 109 | 123 | 97.2 | 99 | 106 | 103 | 119 | 96.8 | 79.1 | 6.43 | 4.34 | 88.4 | 99.9 | 84.9 | 90.8 | 110 | 93.6 | 104 | 84.5 | 44.6 | 9.84 | 4.44 | 104 | 93.5 | 96.3 | 100 | 95.2 | 92 | 95.4 | 104 | 68.2 | 8.22 | 4.09
CCOC(=O)N1CCN(/[N+]([O-])=N/Oc2ccc([N+](=O)[O-])cc2[N+](=O)[O-])CC1 | 85.1 | 102 | 102 | 106 | 117 | 101 | 109 | 110 | 97.1 | 98.5 | 50.8 | 80 | 100 | 89.3 | 94.7 | 89.2 | 92.9 | 94.1 | 98.5 | 102 | 87 | 38.5 | 82.1 | 87.5 | 80.1 | 86.8 | 99.7 | 96.6 | 86.7 | 89.5 | 89.2 | 89.6 | 41.9
Oc1ccc(/C=C/c2cc(O)cc(O)c2)cc1 | 108 | 112 | 115 | 111 | 107 | 114 | 92.4 | 117 | 97.5 | 50.1 | 10.4 | 109 | 98.8 | 111 | 105 | 98 | 102 | 99.8 | 107 | 95.3 | 103 | 15.1 | 89.7 | 106 | 98.1 | 104 | 103 | 105 | 99.2 | 97.4 | 102 | 83.4 | 18.4
Cc1cc(Nc2nc(N[C@@H](C)c3ncc(F)cn3)ncc2Cl)n[nH]1 | 89.6 | 95 | 113 | 124 | 113 | 113 | 109 | 63.3 | 19.9 | 19.5 | 28.5 | 114 | 126 | 117 | 124 | 114 | 123 | 125 | 116 | 98.4 | 19.5 | 15.7 | 108 | 119 | 105 | 127 | 127 | 120 | 126 | 135 | 112 | 38.3 | 23.8
NC(=O)c1ncn([C@@H]2O[C@H](CO)[C@@H](O)[C@H]2O)n1 | 116 | 134 | 110 | 117 | 112 | 103 | 88 | 69.2 | 55.4 | 56.8 | 29.6 | 104 | 129 | 115 | 108 | 113 | 110 | 102 | 85.4 | 76.7 | 74.5 | 36.7 | 124 | 110 | 116 | 115 | 114 | 104 | 89.4 | 69.3 | 58.2 | 68.2 | 48.9
Oc1ccc(C2CCN(c3ccnc4ccccc34)CC2)cc1O | 101 | 107 | 115 | 101 | 123 | 124 | 113 | 123 | 94.1 | 82.9 | 55.6 | 108 | 109 | 97.5 | 101 | 107 | 123 | 108 | 120 | 98.9 | 95.7 | 48.6 | 91.9 | 99 | 97.9 | 83.8 | 104 | 96.4 | 103 | 109 | 111 | 98.1 | 70.9
CC[C@H]1/C=C\C=C/C[C@@H](C)[C@H](O)[C@@](C)(O)C(=O)[C@@H](C)[C@H](O)[C@@H](C)C(=O)[C@@H](C)[C@H](O)[C@@H](C)/C=C/C(=O)O[C@@H]2[C@H](C)[C@H](CC1)O[C@]1(CC[C@H](C)[C@H](C[C@@H](C)O)O1)[C@H]2C | 74.4 | 89.4 | 105 | 117 | 103 | 106 | 108 | 55.4 | 40.7 | 31.6 | 5.57 | 83 | 86.4 | 87.1 | 88.9 | 82.7 | 104 | 92.7 | 44.7 | 39.1 | 37.6 | 4.56 | 81.4 | 89.2 | 92.9 | 83.9 | 75.1 | 94.4 | 79.7 | 54.2 | 39.9 | 31.6 | 4.92
C=CC1=C(C(=O)O)N2C(=O)[C@@H](NC(=O)/C(=N\O)c3csc(N)n3)[C@H]2SC1 | 82.9 | 110 | 119 | 102 | 123 | 109 | 129 | 129 | 110 | 113 | 118 | 104 | 119 | 124 | 118 | 117 | 127 | 116 | 120 | 125 | 134 | 138 | 98.2 | 105 | 115 | 118 | 119 | 125 | 140 | 124 | 121 | 109 | 107
C[C@@H](O)[C@@H]1[C@H]2[C@@H](C)\C(=C(/N2C1=O)C(=O)OCOC(=O)C(C)(C)C)SC3CN(C3)/C4=N/CCS4 | 93.2 | 93.2 | 103 | 111 | 110 | 113 | 105 | 102 | 68.2 | 60.8 | 38.4 | 92.3 | 102 | 113 | 111 | 101 | 112 | 101 | 110 | 109 | 116 | 104 | 87.8 | 106 | 103 | 119 | 111 | 126 | 115 | 120 | 100 | 84.5 | 77.7
COC[C@@H](NC(C)=O)C(=O)NCc1ccccc1 | 112 | 119 | 117 | 132 | 116 | 118 | 114 | 117 | 107 | 105 | 86.7 | 95.9 | 110 | 97 | 102 | 118 | 109 | 119 | 104 | 104 | 112 | 64.8 | 106 | 117 | 116 | 114 | 125 | 115 | 125 | 124 | 131 | 118 | 69.5
CC1(C)CCC(=C(CN2CCN(CC2)C3=CC=C(C=C3)C(=O)N[S+]([O-])(=O)C4=CC(=C(N[C@H](CCN5CCOCC5)CSC6=CC=CC=C6)C=C4)[S+]([O-])(=O)C(F)(F)F)\C1)/C7=CC=C(Cl)C=C7 | 124 | 132 | 123 | 128 | 116 | 112 | 96.7 | 57.1 | 49.2 | 39.2 | 43.2 | – | – | – | – | – | – | – | – | – | – | – | 116 | 125 | 118 | 117 | 90.1 | 78.9 | 61.7 | 23.9 | 24.7 | 29.9 | 22.5
Cc1cccc(-c2nn(C(=S)Nc3ccccc3)cc2-c2ccnc3ccccc23)n1 | – | – | – | – | – | – | – | – | – | – | – | 108 | 118 | 109 | 122 | 111 | 113 | 119 | 108 | 115 | 81.6 | 94.9 | 115 | 122 | 112 | 119 | 115 | 103 | 111 | 104 | 117 | 112 | 102
CCC(=O)OCC(=O)[C@@]1(OC(=O)CC)[C@@H](C)C[C@H]2[C@@H]3CCC4=CC(=O)C=C[C@]4(C)[C@@]3(F)[C@@H](O)C[C@@]21C | 117 | 130 | 111 | 109 | 115 | 97.4 | 106 | 62.7 | 43.5 | 28.3 | 25.4 | 99.3 | 98.8 | 107 | 112 | 112 | 105 | 116 | 95 | 84.5 | 16.9 | 18.8 | 110 | 112 | 117 | 115 | 118 | 136 | 108 | 79.1 | 84.3 | 26.4 | 23.9
O=C(O)c1ccc(-n2nc(-c3ccccc3O)nc2-c2ccccc2O)cc1 | 90 | 97.1 | 111 | 90.6 | 108 | 113 | 95.4 | 86.4 | 91.2 | 74.7 | 44.4 | 94.9 | 92.5 | 93.5 | 94 | 104 | 96.3 | 93.5 | 103 | 96 | 90.5 | 29.8 | 94.3 | 103 | 96.4 | 89.2 | 87 | 88.4 | 89.5 | 94.3 | 79.5 | 68 | 24.2
O=C(NC[C@H](O)CN1CCc2ccccc2C1)c1cc(NC2COC2)ncn1 | 93.5 | 117 | 173 | 29.5 | 64.5 | 99.2 | 101 | 72.7 | 70.7 | 56.1 | 38.6 | 92.9 | 80.4 | 88.2 | 99.3 | 83 | 89.9 | 94.4 | 92.6 | 84.3 | 75.1 | 74.2 | 83.5 | 92.8 | 93.5 | 101 | 84.7 | 91.8 | 68.4 | 66.4 | 81.4 | 67.3 | 63.3

From the supplement of paper PMC11451515
